Data as given in patent EP0726263A2, “Herbicidal (1,3,4)oxadiazoles and thiadiazoles” (American Cyanamid Company, priority 1995, dated 1996).

Legend:
Type in all cases: in vivo
Ipomoea hederacea [1] = experiment: Herbicidal activity, preemergence test; conditions: pre; sprayed onto soil, 800 g of active material per hectare; evaluated 3 weeks after treatment
In short: (§1)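 First, test compound in acetone containing 0.4% Triton X-155 is diluted with water. Next, it is sprayed at 800 g/ha (900 L/ha) onto freshly seeded loam (pre) or onto seedlings (post). Finally, plants are scored 0-9 visually after 3 or 2 weeks, respectively.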

Amaranthus retroflexus [2] = experiment: Herbicidal activity, preemergence test; conditions: pre; sprayed onto soil, 800 g of active material per hectare; evaluated 3 weeks after treatment
In short: as §1

Glycine max [3] = experiment: Herbicidal activity, preemergence test; conditions: pre; sprayed onto soil, 800 g of active material per hectare; evaluated 3 weeks after treatment
In short: as §1

Chenopodium album [4] = experiment: Herbicidal activity, preemergence test; conditions: pre; sprayed onto soil, 800 g of active material per hectare; evaluated 3 weeks after treatment
In short: as §1

Lamium purpureum [5] = experiment: Herbicidal activity, preemergence test; conditions: pre; sprayed onto soil, 800 g of active material per hectare; evaluated 3 weeks after treatment
In short: as §1

Matricaria inodora [6] = experiment: Herbicidal activity, preemergence test; conditions: pre; sprayed onto soil, 800 g of active material per hectare; evaluated 3 weeks after treatment
In short: as §1

Zea mays [7] = experiment: Herbicidal activity, preemergence test; conditions: pre; sprayed onto soil, 800 g of active material per hectare; evaluated 3 weeks after treatment
In short: as §1

Stellaria media [8] = experiment: Herbicidal activity, preemergence test; conditions: pre; sprayed onto soil, 800 g of active material per hectare; evaluated 3 weeks after treatment
In short: as §1

Ambrosia artemisifolia [9] = experiment: Herbicidal activity, preemergence test; conditions: pre; sprayed onto soil, 800 g of active material per hectare; evaluated 3 weeks after treatment
In short: as §1

Alopecurus myosuroides [10] = experiment: Herbicidal activity, preemergence test; conditions: pre; sprayed onto soil, 800 g of active material per hectare; evaluated 3 weeks after treatment
In short: as §1

Veronica persica [11] = experiment: Herbicidal activity, preemergence test; conditions: pre; sprayed onto soil, 800 g of active material per hectare; evaluated 3 weeks after treatment
In short: as §1

Galium aparine [12] = experiment: Herbicidal activity, preemergence test; conditions: pre; sprayed onto soil, 800 g of active material per hectare; evaluated 3 weeks after treatment
In short: as §1

Setaria viridis [13] = experiment: Herbicidal activity, preemergence test; conditions: pre; sprayed onto soil, 800 g of active material per hectare; evaluated 3 weeks after treatment
In short: as §1

Abutilon theophrasti [14] = experiment: Herbicidal activity, preemergence test; conditions: pre; sprayed onto soil, 800 g of active material per hectare; evaluated 3 weeks after treatment
In short: as §1

Papaver rhoeas [15] = experiment: Herbicidal activity, preemergence test; conditions: pre; sprayed onto soil, 800 g of active material per hectare; evaluated 3 weeks after treatment
In short: as §1

Triticum aestivum [16] = experiment: Herbicidal activity, preemergence test; conditions: pre; sprayed onto soil, 800 g of active material per hectare; evaluated 3 weeks after treatment
In short: as §1

Gossypium hirsutum [17] = experiment: Herbicidal activity, preemergence test; conditions: pre; sprayed onto soil, 800 g of active material per hectare; evaluated 3 weeks after treatment
In short: as §1

Hordeum vulgare [18] = experiment: Herbicidal activity, preemergence test; conditions: pre; sprayed onto soil, 800 g of active material per hectare; evaluated 3 weeks after treatment
In short: as §1

Ipomoea hederacea [19] = experiment: Herbicidal activity, postemergence test; conditions: post; sprayed onto seedling plants, 800 g of active material per hectare; evaluated 2 weeks after treatment
In short: as §1

Amaranthus retroflexus [20] = experiment: Herbicidal activity, postemergence test; conditions: post; sprayed onto seedling plants, 800 g of active material per hectare; evaluated 2 weeks after treatment
In short: as §1

Glycine max [21] = experiment: Herbicidal activity, postemergence test; conditions: post; sprayed onto seedling plants, 800 g of active material per hectare; evaluated 2 weeks after treatment
In short: as §1

Chenopodium album [22] = experiment: Herbicidal activity, postemergence test; conditions: post; sprayed onto seedling plants, 800 g of active material per hectare; evaluated 2 weeks after treatment
In short: as §1

Lamium purpureum [23] = experiment: Herbicidal activity, postemergence test; conditions: post; sprayed onto seedling plants, 800 g of active material per hectare; evaluated 2 weeks after treatment
In short: as §1

Matricaria inodora [24] = experiment: Herbicidal activity, postemergence test; conditions: post; sprayed onto seedling plants, 800 g of active material per hectare; evaluated 2 weeks after treatment
In short: as §1

Zea mays [25] = experiment: Herbicidal activity, postemergence test; conditions: post; sprayed onto seedling plants, 800 g of active material per hectare; evaluated 2 weeks after treatment
In short: as §1

Stellaria media [26] = experiment: Herbicidal activity, postemergence test; conditions: post; sprayed onto seedling plants, 800 g of active material per hectare; evaluated 2 weeks after treatment
In short: as §1

Ambrosia artemisifolia [27] = experiment: Herbicidal activity, postemergence test; conditions: post; sprayed onto seedling plants, 800 g of active material per hectare; evaluated 2 weeks after treatment
In short: as §1

Alopecurus myosuroides [28] = experiment: Herbicidal activity, postemergence test; conditions: post; sprayed onto seedling plants, 800 g of active material per hectare; evaluated 2 weeks after treatment
In short: as §1

Veronica persica [29] = experiment: Herbicidal activity, postemergence test; conditions: post; sprayed onto seedling plants, 800 g of active material per hectare; evaluated 2 weeks after treatment
In short: as §1

Galium aparine [30] = experiment: Herbicidal activity, postemergence test; conditions: post; sprayed onto seedling plants, 800 g of active material per hectare; evaluated 2 weeks after treatment
In short: as §1

Setaria viridis [31] = experiment: Herbicidal activity, postemergence test; conditions: post; sprayed onto seedling plants, 800 g of active material per hectare; evaluated 2 weeks after treatment
In short: as §1

Abutilon theophrasti [32] = experiment: Herbicidal activity, postemergence test; conditions: post; sprayed onto seedling plants, 800 g of active material per hectare; evaluated 2 weeks after treatment
In short: as §1

Papaver rhoeas [33] = experiment: Herbicidal activity, postemergence test; conditions: post; sprayed onto seedling plants, 800 g of active material per hectare; evaluated 2 weeks after treatment
In short: as §1

Triticum aestivum [34] = experiment: Herbicidal activity, postemergence test; conditions: post; sprayed onto seedling plants, 800 g of active material per hectare; evaluated 2 weeks after treatment
In short: as §1

Gossypium hirsutum [35] = experiment: Herbicidal activity, postemergence test; conditions: post; sprayed onto seedling plants, 800 g of active material per hectare; evaluated 2 weeks after treatment
In short: as §1

Hordeum vulgare [36] = experiment: Herbicidal activity, postemergence test; conditions: post; sprayed onto seedling plants, 800 g of active material per hectare; evaluated 2 weeks after treatment
In short: as §1

SMILES | IPOHE control rating (0-9) (Ipomoea hederacea [1]) | AMARE control rating (0-9) (Amaranthus retroflexus [2]) | GLXMA control rating (0-9) (Glycine max [3]) | CHEAL control rating (0-9) (Chenopodium album [4]) | LAMPU control rating (0-9) (Lamium purpureum [5]) | MATIN control rating (0-9) (Matricaria inodora [6]) | ZEAMX control rating (0-9) (Zea mays [7]) | STEME control rating (0-9) (Stellaria media [8]) | AMBEL control rating (0-9) (Ambrosia artemisifolia [9]) | ALOMY control rating (0-9) (Alopecurus myosuroides [10]) | VERPE control rating (0-9) (Veronica persica [11]) | GALAP control rating (0-9) (Galium aparine [12]) | SETVI control rating (0-9) (Setaria viridis [13]) | ABUTH control rating (0-9) (Abutilon theophrasti [14]) | PAPRH control rating (0-9) (Papaver rhoeas [15]) | TRZAW control rating (0-9) (Triticum aestivum [16]) | GOSHI control rating (0-9) (Gossypium hirsutum [17]) | HORVW control rating (0-9) (Hordeum vulgare [18]) | IPOHE control rating (0-9) (Ipomoea hederacea [19]) | AMARE control rating (0-9) (Amaranthus retroflexus [20]) | also measured
COc1ccc(-c2nnc(C(=O)N[C@@H](C)c3ccccc3)o2)cc1 [Example 19] | 0 (no effect) | 9 (complete kill) | 0 (no effect) | 9 (complete kill) | 8 (approaching complete kill) | 7 (good herbicidal effect) | 0 (no effect) | 6 (herbicidal effect) | 0 (no effect) | 0 (no effect) | 9 (complete kill) | 0 (no effect) | 7 (good herbicidal effect) | 1 (trace effect) | 9 (complete kill) | 0 (no effect) | 0 (no effect) | 0 (no effect) | 6 (herbicidal effect) | 8 (approaching complete kill) | GLXMA control rating (0-9) (Glycine max [21]): 4 (injury); CHEAL control rating (0-9) (Chenopodium album [22]): 8 (approaching complete kill); LAMPU control rating (0-9) (Lamium purpureum [23]): 8 (approaching complete kill); MATIN control rating (0-9) (Matricaria inodora [24]): 6 (herbicidal effect); ZEAMX control rating (0-9) (Zea mays [25]): 3 (moderate effect); STEME control rating (0-9) (Stellaria media [26]): 8 (approaching complete kill); AMBEL control rating (0-9) (Ambrosia artemisifolia [27]): 7 (good herbicidal effect); ALOMY control rating (0-9) (Alopecurus myosuroides [28]): 3 (moderate effect); VERPE control rating (0-9) (Veronica persica [29]): 9 (complete kill); GALAP control rating (0-9) (Galium aparine [30]): 5 (definite injury); SETVI control rating (0-9) (Setaria viridis [31]): 9 (complete kill); ABUTH control rating (0-9) (Abutilon theophrasti [32]): 9 (complete kill); PAPRH control rating (0-9) (Papaver rhoeas [33]): 7 (good herbicidal effect); TRZAW control rating (0-9) (Triticum aestivum [34]): 2 (slight effect); GOSHI control rating (0-9) (Gossypium hirsutum [35]): 9 (complete kill); HORVW control rating (0-9) (Hordeum vulgare [36]): 3 (moderate effect)
C[C@H](NC(=O)c1nnc(-c2ccccc2Cl)o1)c1ccccc1 [Example 21] | 1 (trace effect) | 3 (moderate effect) | 0 (no effect) | 2 (slight effect) | 5 (definite injury) | 6 (herbicidal effect) | 0 (no effect) | 5 (definite injury) | 0 (no effect) | 0 (no effect) | 9 (complete kill) | 0 (no effect) | 1 (trace effect) | 0 (no effect) | 9 (complete kill) | 0 (no effect) | 0 (no effect) | 0 (no effect) | 4 (injury) | 8 (approaching complete kill) | GLXMA control rating (0-9) (Glycine max [21]): 2 (slight effect); CHEAL control rating (0-9) (Chenopodium album [22]): 7 (good herbicidal effect); LAMPU control rating (0-9) (Lamium purpureum [23]): 6 (herbicidal effect); MATIN control rating (0-9) (Matricaria inodora [24]): 4 (injury); ZEAMX control rating (0-9) (Zea mays [25]): 2 (slight effect); STEME control rating (0-9) (Stellaria media [26]): 9 (complete kill); AMBEL control rating (0-9) (Ambrosia artemisifolia [27]): 6 (herbicidal effect); ALOMY control rating (0-9) (Alopecurus myosuroides [28]): 0 (no effect); VERPE control rating (0-9) (Veronica persica [29]): 7 (good herbicidal effect); GALAP control rating (0-9) (Galium aparine [30]): 4 (injury); SETVI control rating (0-9) (Setaria viridis [31]): 6 (herbicidal effect); ABUTH control rating (0-9) (Abutilon theophrasti [32]): 5 (definite injury); PAPRH control rating (0-9) (Papaver rhoeas [33]): 5 (definite injury); TRZAW control rating (0-9) (Triticum aestivum [34]): 2 (slight effect); GOSHI control rating (0-9) (Gossypium hirsutum [35]): 8 (approaching complete kill); HORVW control rating (0-9) (Hordeum vulgare [36]): 1 (trace effect)
C[C@H](NC(=O)c1nnc(-c2ccc(C(F)(F)F)cc2)o1)c1ccccc1 [Example 23] | 0 (no effect) | 9 (complete kill) | 0 (no effect) | 8 (approaching complete kill) | 7 (good herbicidal effect) | 8 (approaching complete kill) | 1 (trace effect) | 8 (approaching complete kill) | 0 (no effect) | 4 (injury) | 9 (complete kill) | 0 (no effect) | 8 (approaching complete kill) | 5 (definite injury) | 9 (complete kill) | 0 (no effect) | 0 (no effect) | 0 (no effect) | 8 (approaching complete kill) | 9 (complete kill) | GLXMA control rating (0-9) (Glycine max [21]): 5 (definite injury); CHEAL control rating (0-9) (Chenopodium album [22]): 9 (complete kill); LAMPU control rating (0-9) (Lamium purpureum [23]): 9 (complete kill); MATIN control rating (0-9) (Matricaria inodora [24]): 8 (approaching complete kill); ZEAMX control rating (0-9) (Zea mays [25]): 3 (moderate effect); STEME control rating (0-9) (Stellaria media [26]): 9 (complete kill); AMBEL control rating (0-9) (Ambrosia artemisifolia [27]): 8 (approaching complete kill); ALOMY control rating (0-9) (Alopecurus myosuroides [28]): 3 (moderate effect); VERPE control rating (0-9) (Veronica persica [29]): 9 (complete kill); GALAP control rating (0-9) (Galium aparine [30]): 7 (good herbicidal effect); SETVI control rating (0-9) (Setaria viridis [31]): 9 (complete kill); ABUTH control rating (0-9) (Abutilon theophrasti [32]): 9 (complete kill); PAPRH control rating (0-9) (Papaver rhoeas [33]): 8 (approaching complete kill); TRZAW control rating (0-9) (Triticum aestivum [34]): 3 (moderate effect); GOSHI control rating (0-9) (Gossypium hirsutum [35]): 9 (complete kill); HORVW control rating (0-9) (Hordeum vulgare [36]): 4 (injury)
